# Active and inactive are the calls of the source. No cut-off for these calls is given here. Where a SMILES comes first, the peptide text is derived from it. Bridges are numbered along the chain shown (N, C = ends).
# Columns and labels:
# RAW264.7 [1] = test: Cytotoxicity against mouse RAW264.7 cells assessed as reduction in cell viability at 5 to 50 uM after 24 hrs by MTT assay; assay type: cell-based; settings: raw264.7, 24 h
# Rattus norvegicus = test: Antiarthritic activity in Lewis rat model of complete Freund's adjuvant-induced arthritis assessed as reduction in inflammation synovial tissues at 1 nmol/g administered intra-articularly into knee joint after 1 week by Safranin-O staining based histopathological analysis; assay type: functional, organism-based
# Toll-like receptor 4 [2] = molecular target: T1, Toll-like receptor 4 (Homo sapiens, UniProt O00206); test: Antagonist activity at TLR4 (unknown origin)
# Toll-like receptor 4 [3] = molecular target: T1, Toll-like receptor 4; test: Binding affinity to recombinant human TLR4 by surface plasmon resonance analysis
# [4] = molecular target: T2, Toll-like receptor 4 (Mus musculus) (UniProt Q9QUK6); test: Antagonist activity at TLR4 in mouse RAW264.7 cells assessed as reduction in LPS-induced extracellular NO secretion at 5 to 50 uM by spectrophotometric method; assay type: cell-based
# T2 sequence (whole entry): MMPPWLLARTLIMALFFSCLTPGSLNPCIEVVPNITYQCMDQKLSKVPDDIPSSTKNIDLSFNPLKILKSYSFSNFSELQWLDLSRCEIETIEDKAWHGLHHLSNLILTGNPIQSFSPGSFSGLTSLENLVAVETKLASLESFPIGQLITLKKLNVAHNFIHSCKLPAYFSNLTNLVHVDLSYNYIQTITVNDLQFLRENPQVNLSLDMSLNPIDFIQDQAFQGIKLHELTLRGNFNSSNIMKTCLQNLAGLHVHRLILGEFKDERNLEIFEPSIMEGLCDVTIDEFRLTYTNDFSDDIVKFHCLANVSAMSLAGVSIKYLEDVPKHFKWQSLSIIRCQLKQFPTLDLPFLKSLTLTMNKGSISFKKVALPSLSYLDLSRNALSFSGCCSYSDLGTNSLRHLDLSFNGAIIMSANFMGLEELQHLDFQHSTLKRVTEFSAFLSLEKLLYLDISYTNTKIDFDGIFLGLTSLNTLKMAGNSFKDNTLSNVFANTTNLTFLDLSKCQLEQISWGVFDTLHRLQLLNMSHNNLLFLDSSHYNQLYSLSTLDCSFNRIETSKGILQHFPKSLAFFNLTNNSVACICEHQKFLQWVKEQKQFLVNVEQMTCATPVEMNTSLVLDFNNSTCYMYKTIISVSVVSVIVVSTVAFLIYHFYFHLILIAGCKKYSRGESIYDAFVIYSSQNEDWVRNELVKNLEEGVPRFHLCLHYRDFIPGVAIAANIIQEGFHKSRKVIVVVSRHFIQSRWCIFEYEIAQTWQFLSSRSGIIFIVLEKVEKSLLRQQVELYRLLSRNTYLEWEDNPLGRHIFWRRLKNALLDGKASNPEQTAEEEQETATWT
# Toll-like receptor 4 [5] = molecular target: T1, Toll-like receptor 4; test: Antagonist activity at TLR4 in human THP1 cells assessed as reduction in LPS-induced NFkappaB p65 phosphorylation at 50 uM after 15 to 30 mins by Western blot analysis; assay type: cell-based
# Toll-like receptor 4 [6] = molecular target: T1, Toll-like receptor 4; test: Antagonist activity at TLR4 in human THP1 cells assessed as reduction in LPS-induced JNK phosphorylation at 50 uM after 15 to 30 mins by Western blot analysis; assay type: cell-based
# [7] = molecular target: T2, Toll-like receptor 4 (Mus musculus); test: Antagonist activity at TLR4 in mouse RAW264.7 cells assessed as reduction in LPS-induced IL-6 secretion after 24 hrs by ELISA; assay type: cell-based
# Toll-like receptor 4 [8] = molecular target: T1, Toll-like receptor 4; test: Antagonist activity at TLR4 in human THP1 cells assessed as reduction in LPS-induced p38 phosphorylation at 50 uM after 15 to 30 mins by Western blot analysis; assay type: cell-based
# [9] = molecular target: T2, Toll-like receptor 4 (Mus musculus); test: Antagonist activity at TLR4 in mouse RAW264.7 cells assessed as reduction in LPS-induced cytosolic ROS level at 50 uM by DCF-DA staining based FACS analysis; assay type: cell-based
# [10] = molecular target: T2, Toll-like receptor 4 (Mus musculus); test: Antagonist activity at TLR4 in mouse RAW264.7 cells assessed as reduction in LPS-induced TNFalpha secretion after 24 hrs by ELISA; assay type: cell-based
# Toll-like receptor 4 [11] = molecular target: T1, Toll-like receptor 4; test: Antagonist activity at TLR4 (unknown origin) assessed as inhibition of proinflammatory cytokines
# Toll-like receptor 4 [12] = molecular target: T1, Toll-like receptor 4; test: Binding affinity to recombinant human TLR4 using phage displayed compound by Phage-ELISA
# Toll-like receptor 4 [13] = molecular target: T1, Toll-like receptor 4; test: Binding affinity to recombinant human TLR4 assessed as dissociation rate constant up to 200 uM by surface plasmon resonance analysis
# [14] = molecular target: Toll-like receptor 1/2 (Mus musculus) (UniProt Q9QUN7+Q9EPQ1); test: Antagonist activity at TLR2/1 in mouse RAW264.7 cells assessed as reduction in PAM3CSK4-induced TNFalpha secretion at 20 to 80 uM after 24 hrs by ELISA; assay type: cell-based
# [15] = molecular target: T2, Toll-like receptor 4 (Mus musculus); test: Antagonist activity at TLR4 in mouse RAW264.7 cells assessed as reduction in LPS-induced p38 phosphorylation at 80 uM after 15 to 30 mins by Western blot analysis; assay type: cell-based
# [16] = molecular target: T2, Toll-like receptor 4 (Mus musculus); test: Antagonist activity at TLR4 in mouse RAW264.7 cells assessed as reduction in LPS-induced IFNbeta secretion after 24 hrs by ELISA; assay type: cell-based
# RAW264.7 [17] = test: Antagonist activity at TLR7/8 in mouse RAW264.7 cells assessed as reduction in R848-induced TNFalpha secretion at 20 to 80 uM after 24 hrs by ELISA; assay type: cell-based
# [18] = molecular target: T2, Toll-like receptor 4 (Mus musculus); test: Antagonist activity at TLR4 in mouse RAW264.7 cells assessed as reduction in LPS-induced cytosolic NO level at 80 uM by DAF-FM staining based FACS analysis; assay type: cell-based
# [19] = molecular target: T2, Toll-like receptor 4 (Mus musculus); test: Antagonist activity at TLR4 in mouse RAW264.7 cells assessed as reduction in LPS-induced COX2 expression at 80 uM by Western blot analysis; assay type: cell-based
# TLR2/TLR6 (Homo sapiens) = TLR2/TLR6 (Homo sapiens) (UniProt O60603+Q9Y2C9); test: Antagonist activity at TLR2/6 in human PBMC cells assessed as reduction in FSL-1-induced TNFalpha secretion at 20 to 80 uM after 24 hrs by ELISA; assay type: cell-based
# [20] = Effect on SEAP activity in HEK-Blue cells harboring human TLR4 at 20 to 80 uM after 1 hr by SEAP assay; assay type: ADME, cell-based
# [21] = molecular target: T2, Toll-like receptor 4 (Mus musculus); test: Antagonist activity at TLR4 in mouse RAW264.7 cells assessed as reduction in LPS-induced extracellular NO secretion at 20 to 80 uM by spectrophotometric method; assay type: cell-based
# T1 sequence (O00206 whole entry): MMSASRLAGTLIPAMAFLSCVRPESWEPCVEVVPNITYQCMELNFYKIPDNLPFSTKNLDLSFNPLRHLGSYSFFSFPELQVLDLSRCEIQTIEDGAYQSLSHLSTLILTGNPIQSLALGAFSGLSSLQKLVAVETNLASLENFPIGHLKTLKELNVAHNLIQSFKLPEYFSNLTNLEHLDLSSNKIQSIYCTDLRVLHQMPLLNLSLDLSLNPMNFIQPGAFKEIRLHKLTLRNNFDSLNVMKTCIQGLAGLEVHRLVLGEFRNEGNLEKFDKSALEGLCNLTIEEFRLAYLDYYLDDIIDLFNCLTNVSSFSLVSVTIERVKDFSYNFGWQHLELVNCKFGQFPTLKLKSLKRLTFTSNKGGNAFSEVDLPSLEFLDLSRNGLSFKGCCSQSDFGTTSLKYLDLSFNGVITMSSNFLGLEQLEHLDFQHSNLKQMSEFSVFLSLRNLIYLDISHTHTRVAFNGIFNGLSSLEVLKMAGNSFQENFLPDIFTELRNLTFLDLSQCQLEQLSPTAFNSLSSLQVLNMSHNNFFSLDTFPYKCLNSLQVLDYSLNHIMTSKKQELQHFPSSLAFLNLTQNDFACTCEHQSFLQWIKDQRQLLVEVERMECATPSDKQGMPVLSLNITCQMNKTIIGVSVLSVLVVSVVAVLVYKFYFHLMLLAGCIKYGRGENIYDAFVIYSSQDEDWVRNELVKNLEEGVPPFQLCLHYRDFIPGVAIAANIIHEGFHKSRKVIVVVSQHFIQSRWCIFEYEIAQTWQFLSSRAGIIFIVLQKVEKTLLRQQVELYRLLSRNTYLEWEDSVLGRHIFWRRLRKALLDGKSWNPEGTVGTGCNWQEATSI
compound,measurement,setting,value
CC[C@H](C)[C@@H]1NC(=O)[C@H](Cc2c[nH]c3ccccc23)NC(=O)[C@H](Cc2c[nH]c3ccccc23)NC(=O)[C@@H](NC(=O)[C@H](CO)NC(=O)[C@H](Cc2ccccc2)NC(=O)[C@@H](NC(=O)CNC(=O)[C@@H](N)CC(C)C)C(C)C)CC(=O)NCCCC[C@@H](C(=O)N[C@@H](CC(C)C)C(=O)N[C@H](C(=O)O)C(C)C)NC1=O (H-LGVFSDWWIKLV-OH; lactam 6-10),Activity,RAW264.7 [1],Non-Toxic
same,Activity,Rattus norvegicus,Active
same,IC50,Toll-like receptor 4 [2],25 µM
same,Activity,Toll-like receptor 4 [3],Dose-dependent effect
same,Activity,[4],Active
same,Activity,Toll-like receptor 4 [5],Active
same,Activity,Toll-like receptor 4 [6],Active
same,Activity,[7],Dose-dependent effect
same,Activity,Toll-like receptor 4 [8],Active
same,Activity,[9],Active
same,Activity,[10],Dose-dependent effect
same,IC50,Toll-like receptor 4 [11],5 µM
same,Activity,Toll-like receptor 4 [12],Active
same,koff,Toll-like receptor 4 [13],0.0014 s⁻¹
H-LGVFSSWWIKLV-OH,IC50,Toll-like receptor 4 [2],40 µM
same,Activity,Toll-like receptor 4 [3],Dose-dependent effect
same,Activity,[14],inactive
same,Activity,[15],Active
same,Activity,[16],Dose-dependent effect
same,Activity,RAW264.7 [17],inactive
same,Activity,[7],Dose-dependent effect
same,Activity,[18],Active
same,Activity,[19],Active
same,Activity,[10],Dose-dependent effect
same,IC50,Toll-like receptor 4 [11],20 µM
same,Activity,Toll-like receptor 4 [12],Active
same,Activity,TLR2/TLR6 (Homo sapiens),inactive
same,Activity,[20],Non-Toxic
same,koff,Toll-like receptor 4 [13],0.0113 s⁻¹
same,Activity,[21],Active
